From PubChem BioAssay (NCI)
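How tested: cells in 96-well plates exposed to compound for 48 hours at five concentrations. GI50 marks 50% less growth. TGI is the concentration that stops growth completely.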

Assays:
Assay in all cases: growth of human tumour cells (NCI), 48 h
[1] = tested on: MALME-3M melanoma
[2] = tested on: SF-268 CNS
[3] = tested on: IGROV1 ovarian
[4] = tested on: SF-539 CNS
[5] = tested on: A549 NSCLC
[6] = tested on: HCT-116 colon
[7] = tested on: OVCAR-5 ovarian
[8] = tested on: CAKI-1 renal
[9] = tested on: HL-60(TB) leukemia

Compound: CCOc1c(Cc2ccccc2)c(=O)n2c3ccccc3n3c(=O)n(C)c(=O)c1c23
- TGI [1]: > 100 µM
- TGI [2]: > 100 µM
- TGI [3]: > 100 µM
- TGI [4]: > 100 µM
- TGI [5]: > 100 µM
- TGI [6]: > 100 µM
- TGI [7]: > 100 µM
- TGI [8]: > 100 µM

Compound: O=[P+](O)c1cc2c3ccccc3ccc2c2ccccc12
- TGI [2]: > 100 µM
- TGI [3]: > 100 µM
- TGI [4]: > 100 µM
- TGI [5]: > 100 µM
- TGI [6]: > 100 µM
- TGI [9]: > 100 µM

Compound: C/C(=N/OCCC(=O)O)C1CC1
- TGI [1]: > 100 µM
- TGI [2]: > 100 µM
- TGI [3]: > 100 µM
- TGI [4]: > 100 µM
- TGI [5]: > 100 µM
- TGI [6]: > 100 µM
- TGI [8]: > 100 µM
- TGI [9]: > 100 µM

Compound: Cc1cccc(Cc2cnc(NC(=O)/C=C/c3ccco3)s2)c1
- GI50 [1]: 0.0484 µM
- TGI [1]: > 100 µM
- GI50 [2]: 0.181 µM
- TGI [2]: > 100 µM
- GI50 [3]: 0.0712 µM
- TGI [3]: > 100 µM
- GI50 [4]: 0.026 µM
- TGI [4]: 0.0752 µM
- GI50 [5]: 0.0591 µM
- TGI [5]: > 100 µM
- GI50 [6]: 0.0425 µM
- TGI [6]: > 100 µM
- GI50 [7]: 0.208 µM
- TGI [7]: > 100 µM
- GI50 [8]: 0.0459 µM
- TGI [8]: > 100 µM
- GI50 [9]: 0.0281 µM
- TGI [9]: 0.0837 µM

Compound: Nc1ccc(C(=O)N/C(=C\c2ccc3c(c2)OCO3)c2nc3ccc4c(c3[nH]2)C(=O)c2ccccc2C4=O)cc1
- TGI [1]: > 100 µM
- TGI [2]: > 100 µM
- TGI [3]: > 100 µM
- TGI [4]: > 100 µM
- TGI [5]: 79.3 µM
- TGI [6]: > 100 µM
- TGI [7]: > 100 µM
- TGI [8]: > 100 µM

Compound: O=C1NC(=Nc2ccccc2Cl)SC1C(=O)Nc1ccc([N+](=O)[O-])cc1[N+](=O)[O-] (configuration not stated)
- TGI [1]: > 100 µM
- TGI [2]: > 100 µM
- TGI [3]: > 100 µM
- TGI [4]: > 100 µM
- TGI [5]: > 100 µM
- TGI [6]: > 100 µM
- TGI [7]: > 100 µM
- TGI [8]: > 100 µM
- TGI [9]: > 100 µM

Compound: COc1cc2ccc(C(=O)O)cc2cc1OC
- TGI [1]: > 100 µM
- TGI [2]: > 100 µM
- TGI [3]: > 100 µM
- TGI [4]: > 100 µM
- TGI [5]: > 100 µM
- TGI [6]: > 100 µM
- TGI [7]: > 100 µM

Compound: CC(C)C(NCc1c2ccccc2nc2ccccc12)C(=O)O (configuration not stated)
- TGI [1]: > 100 µM
- TGI [2]: > 100 µM
- TGI [3]: > 100 µM
- TGI [4]: > 100 µM
- TGI [5]: > 100 µM
- TGI [6]: > 100 µM
- TGI [7]: > 100 µM
- TGI [8]: > 100 µM
- TGI [9]: 73.8 µM

Compound: O=C1/C(=C/c2ccccc2)CN(C(=O)Oc2ccccc2)C/C1=C\c1ccccc1
- TGI [1]: > 100 µM
- TGI [2]: > 100 µM
- TGI [3]: 83.2 µM
- TGI [4]: 22.3 µM
- TGI [5]: > 100 µM
- TGI [6]: 28.7 µM
- TGI [7]: > 100 µM
- TGI [9]: 5.78 µM

Compound: CCCN(CCC)c1c([N+](=O)[O-])cc(C(N)=O)cc1[N+](=O)[O-]
- TGI [1]: > 100 µM
- TGI [2]: > 100 µM
- TGI [3]: > 100 µM
- TGI [4]: > 100 µM
- TGI [5]: > 100 µM
- TGI [6]: > 100 µM
- TGI [7]: > 100 µM
- TGI [8]: > 100 µM
- TGI [9]: 87.4 µM

Compound: CCC1C(=O)OCc2c1cc1n(c2=O)Cc2ccccc2-1 (configuration not stated)
- TGI [1]: > 100 µM
- TGI [2]: > 100 µM
- TGI [3]: > 100 µM
- TGI [4]: > 100 µM
- TGI [5]: > 100 µM
- TGI [6]: > 100 µM
- TGI [7]: > 100 µM
- TGI [8]: > 100 µM
- TGI [9]: > 100 µM

Compound: COc1ccccc1NC(=O)NS(=O)(=O)c1ccccc1
- TGI [1]: > 100 µM
- TGI [2]: > 100 µM
- TGI [4]: > 100 µM
- TGI [5]: > 100 µM
- TGI [6]: > 100 µM
- TGI [7]: > 100 µM
- TGI [8]: > 100 µM
- TGI [9]: > 100 µM

Compound: c1cc[c]([Sn]([O]c2cccc3cccnc23)([c]2ccccc2)[c]2ccccc2)cc1
- GI50 [2]: 0.0128 µM
- TGI [2]: 0.0275 µM
- GI50 [3]: 0.0196 µM
- TGI [3]: 0.0428 µM
- GI50 [4]: 0.0195 µM
- TGI [4]: 0.0387 µM
- GI50 [5]: 0.0184 µM
- TGI [5]: 0.0427 µM
- GI50 [6]: < 0.01 µM
- TGI [6]: 0.0198 µM
- GI50 [7]: 0.0119 µM
- TGI [7]: 0.0424 µM
- GI50 [8]: 0.0188 µM
- TGI [8]: 0.0852 µM

Compound: CC(C)=CCCC1(C)C=Cc2c(ccc3c2[nH]c2cc(O)c(C)cc23)O1 (configuration not stated)
- GI50 [1]: 5.2 µM
- TGI [1]: 11 µM
- GI50 [2]: 5.06 µM
- TGI [2]: 10.2 µM
- TGI [3]: > 2.5 µM
- GI50 [4]: 4.59 µM
- TGI [4]: 9.78 µM
- GI50 [5]: 6.59 µM
- TGI [5]: 17.5 µM
- GI50 [6]: 8.79 µM
- TGI [6]: > 25 µM
- TGI [7]: > 25 µM
- GI50 [9]: 9.48 µM
- TGI [9]: > 25 µM

Compound: COC(=O)C1=C(c2cc(OC)c(OC)c(OC)c2)OC(c2cc(OC)c(OC)c(OC)c2)C1 (configuration not stated)
- TGI [1]: 72.3 µM
- TGI [2]: > 100 µM
- TGI [3]: 46 µM
- TGI [4]: 75.1 µM
- TGI [5]: > 100 µM
- TGI [6]: 32.9 µM
- TGI [7]: > 100 µM
- TGI [8]: 60.9 µM

Compound: NC(=O)COc1ccc(Br)cc1Br
- TGI [1]: > 100 µM
- TGI [2]: > 100 µM
- TGI [3]: > 100 µM
- TGI [4]: > 100 µM
- TGI [5]: > 100 µM
- TGI [6]: > 100 µM
- TGI [7]: > 100 µM
- TGI [8]: > 100 µM
- TGI [9]: > 100 µM
